Reference: patent publication US11987586B1 (TAKEDA PHARMACEUTICAL COMPANY LIMITED, priority 2022, dated 2024)

Molecular target: T1, human OX2 receptor (Homo sapiens, UniProt O43614)
T1 construct: expressed in transfected cells
T1 sequence (O43614 1-444): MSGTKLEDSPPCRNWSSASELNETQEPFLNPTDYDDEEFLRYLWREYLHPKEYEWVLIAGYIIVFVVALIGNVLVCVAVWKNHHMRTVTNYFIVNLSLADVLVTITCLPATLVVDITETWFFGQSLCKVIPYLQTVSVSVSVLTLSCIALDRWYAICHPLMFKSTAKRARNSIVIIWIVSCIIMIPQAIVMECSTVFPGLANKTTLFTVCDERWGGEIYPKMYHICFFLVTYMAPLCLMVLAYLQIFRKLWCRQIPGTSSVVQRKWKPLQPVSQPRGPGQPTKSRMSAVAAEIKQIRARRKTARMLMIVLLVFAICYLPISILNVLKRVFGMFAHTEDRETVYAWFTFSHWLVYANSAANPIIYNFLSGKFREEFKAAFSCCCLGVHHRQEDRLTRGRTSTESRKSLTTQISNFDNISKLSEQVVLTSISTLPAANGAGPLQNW
Assay: Measurement of orexin type 2 receptor agonist activity (calcium fluorescence, Fluo-4, FDSS)
Format: cell-based
Conditions: 3 uM test compound; CHO cells expressing human OX2 receptor; DMSO = 0%, 10 nM orexin A (human) = 100%
Summary of the method: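 Agonist activity (%) was normalised to the response to 10 nM final human orexin A (100%) and to the DMSO vehicle (0%). The response was measured as the Fluo-4 calcium signal, read kinetically over 1 min 40 s after compound addition to Fluo-4/probenecid-loaded stable CHO-K1 clones expressing human OX2 (aa 1-444).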

| SMILES | OX2R agonist activity (3 uM, %) [%] |
| --- | --- |
| Cc1cc2onc(-n3cc4n(c3=O)C[C@@H](NS(C)(=O)=O)C4(F)F)c2c(-c2c(F)cccc2F)n1 [Example 196, N-{(6R)-2-[4-(2,6-difluorophenyl)-6-methyl[1,2]oxazolo[4,5-c]pyridin-3-yl]-7,7-difluoro-3-oxo-2,5,6,7-tetrahydro-3H-pyrrolo[1,2-c]imidazol-6-yl}methanesulfonamide] | 106 |
| CS(=O)(=O)N[C@@H]1Cn2c(cn(-c3noc4nc(C5CC5)cc(-c5c(F)cccc5F)c34)c2=O)C1(F)F [Example 197, N-{(6R)-2-[6-cyclopropyl-4-(2,6-difluorophenyl)[1,2]oxazolo[5,4-b]pyridin-3-yl]-7,7-difluoro-3-oxo-2,5,6,7-tetrahydro-3H-pyrrolo[1,2-c]imidazol-6-yl}methanesulfonamide] | 115 |
| CCS(=O)(=O)N[C@@H]1Cn2c(cn(-c3noc4cc(C)nc(-c5c(F)cc(F)cc5F)c34)c2=O)C1(F)F [Example 198, N-{(6R)-7,7-difluoro-2-[6-methyl-4-(2,4,6-trifluorophenyl)[1,2]oxazolo[4,5-c]pyridin-3-yl]-3-oxo-2,5,6,7-tetrahydro-3H-pyrrolo[1,2-c]imidazol-6-yl}ethanesulfonamide] | 112 |
| CCOc1cc(-c2c(F)cccc2F)c2c(N3CC[C@H]4N(C[C@@H](NS(C)(=O)=O)C4(F)F)C3=O)noc2c1 [Example 199, N-{(4aR,6R)-2-[4-(2,6-difluorophenyl)-6-ethoxy-1,2-benzoxazol-3-yl]-5,5-difluoro-1-oxooctahydropyrrolo[1,2-c]pyrimidin-6-yl}methanesulfonamide] | 105 |
| CS(=O)(=O)N[C@@H]1CN2C(=O)N(c3noc4cc(C(F)F)cc(-c5c(F)cc(F)cc5F)c34)CC[C@@H]2C1(F)F [Example 200, N-{(4aR,6R)-2-[6-(difluoromethyl)-4-(2,4,6-trifluorophenyl)-1,2-benzoxazol-3-yl]-5,5-difluoro-1-oxooctahydropyrrolo[1,2-c]pyrimidin-6-yl}methanesulfonamide] | 122 |
| Cc1cc2onc(-n3cc4n(c3=O)C[C@@H](NS(=O)(=O)CF)C4(F)F)c2c(-c2c(F)cc(F)cc2F)n1 [Example 201, N-{(6R)-7,7-difluoro-2-[6-methyl-4-(2,4,6-trifluorophenyl)[1,2]oxazolo[4,5-c]pyridin-3-yl]-3-oxo-2,5,6,7-tetrahydro-3H-pyrrolo[1,2-c]imidazol-6-yl}-1-fluoromethanesulfonamide] | 114 |
| CCOc1cc2onc(N3CC[C@H]4N(C[C@@H](NS(C)(=O)=O)C4(F)F)C3=O)c2c(-c2c(F)cc(F)cc2F)c1F [Example 202, N-{(4aR,6R)-2-[6-ethoxy-5-fluoro-4-(2,4,6-trifluorophenyl)-1,2-benzoxazol-3-yl]-5,5-difluoro-1-oxooctahydropyrrolo[1,2-c]pyrimidin-6-yl}methanesulfonamide] | 99 |
| O=C1N(c2noc3cccc(-c4c(F)cc(F)cc4F)c23)CC[C@H]2N1C[C@@H](NS(=O)(=O)CF)C2(F)F [Example 203, N-{(4aR,6R)-5,5-difluoro-1-oxo-2-[4-(2,4,6-trifluorophenyl)-1,2-benzoxazol-3-yl]octahydropyrrolo[1,2-c]pyrimidin-6-yl}-1-fluoromethanesulfonamide] | 114 |
| CCS(=O)(=O)N[C@@H]1CN2C(=O)N(c3noc4ccc(F)c(-c5c(F)cc(F)cc5F)c34)CC[C@@H]2C1(F)F [Example 204, N-{(4aR,6R)-5,5-difluoro-2-[5-fluoro-4-(2,4,6-trifluorophenyl)-1,2-benzoxazol-3-yl]-1-oxooctahydropyrrolo[1,2-c]pyrimidin-6-yl}ethanesulfonamide] | 109 |
| CCS(=O)(=O)N[C@H]1C[C@H]2CCN(c3noc4cccc(-c5c(F)cc(F)cc5F)c34)C(=O)N2C1 [Example 205, N-{(4aR,6S)-1-oxo-2-[4-(2,4,6-trifluorophenyl)-1,2-benzoxazol-3-yl]octahydropyrrolo[1,2-c]pyrimidin-6-yl}ethanesulfonamide] | 107 |
| CS(=O)(=O)N[C@@H]1CN2C(=O)N(c3noc4cccc(-c5c(F)cccc5F)c34)CC[C@@H]2C1(F)F [Example 206, N-{(4aR,6R)-2-[4-(2,6-difluorophenyl)-1,2-benzoxazol-3-yl]-5,5-difluoro-1-oxooctahydropyrrolo[1,2-c]pyrimidin-6-yl}methanesulfonamide] | 110 |
| O=C1N(c2noc3ccc(F)c(-c4c(F)cc(F)cc4F)c23)CC[C@H]2N1C[C@@H](NS(=O)(=O)CF)C2(F)F [Example 207, N-{(4aR,6R)-5,5-difluoro-2-[5-fluoro-4-(2,4,6-trifluorophenyl)-1,2-benzoxazol-3-yl]-1-oxooctahydropyrrolo[1,2-c]pyrimidin-6-yl}-1-fluoromethanesulfonamide] | 113 |
| CS(=O)(=O)N[C@@H]1CN2C(=O)N(c3noc4cc(F)cc(-c5c(F)cc(F)cc5F)c34)CC[C@@H]2C1(F)F [Example 208, N-{(4aR,6R)-5,5-difluoro-2-[6-fluoro-4-(2,4,6-trifluorophenyl)-1,2-benzoxazol-3-yl]-1-oxooctahydropyrrolo[1,2-c]pyrimidin-6-yl}methanesulfonamide] | 102 |
| Cc1cc(-c2c(F)cccc2F)c2c(N3CC[C@H]4N(C[C@@H](NS(C)(=O)=O)C4(F)F)C3=O)noc2c1 [Example 209, N-{(4aR,6R)-2-[4-(2,6-difluorophenyl)-6-methyl-1,2-benzoxazol-3-yl]-5,5-difluoro-1-oxooctahydropyrrolo[1,2-c]pyrimidin-6-yl}methanesulfonamide] | 96 |
| COCc1cc(-c2c(F)cc(F)cc2F)c2c(N3CC[C@H]4N(C[C@@H](NS(C)(=O)=O)C4(F)F)C3=O)noc2c1 [Example 210, N-{(4aR,6R)-5,5-difluoro-2-[6-(methoxymethyl)-4-(2,4,6-trifluorophenyl)-1,2-benzoxazol-3-yl]-1-oxooctahydropyrrolo[1,2-c]pyrimidin-6-yl}methanesulfonamide] | 94 |
| CCS(=O)(=O)N[C@@H]1Cn2c(cn(-c3noc4nc(C5CC5)cc(-c5c(F)cccc5F)c34)c2=O)C1(F)F [Example 211, N-{(6R)-2-[6-cyclopropyl-4-(2,6-difluorophenyl)[1,2]oxazolo[5,4-b]pyridin-3-yl]-7,7-difluoro-3-oxo-2,5,6,7-tetrahydro-3H-pyrrolo[1,2-c]imidazol-6-yl}ethanesulfonamide] | 108 |
| CCS(=O)(=O)N[C@@H]1Cn2c(cn(-c3noc4cc(COC)c(F)c(-c5c(F)cccc5F)c34)c2=O)C1(F)F [Example 212, N-{(6R)-2-[4-(2,6-difluorophenyl)-5-fluoro-6-(methoxymethyl)-1,2-benzoxazol-3-yl]-7,7-difluoro-3-oxo-2,5,6,7-tetrahydro-3H-pyrrolo[1,2-c]imidazol-6-yl}ethanesulfonamide] | 100 |
| COCc1cc(-c2c(F)cccc2F)c2c(N3CC[C@H]4N(C[C@@H](NS(C)(=O)=O)C4(F)F)C3=O)noc2c1 [Example 215, N-{(4aR,6R)-2-[4-(2,6-difluorophenyl)-6-(methoxymethyl)-1,2-benzoxazol-3-yl]-5,5-difluoro-1-oxooctahydropyrrolo[1,2-c]pyrimidin-6-yl}methanesulfonamide] | 99 |
| CCOc1cc(-c2c(F)cc(F)cc2F)c2c(N3CC[C@H]4N(C[C@@H](NS(C)(=O)=O)C4(F)F)C3=O)noc2c1 [Example 217, N-{(4aR,6R)-2-[6-ethoxy-4-(2,4,6-trifluorophenyl)-1,2-benzoxazol-3-yl]-5,5-difluoro-1-oxooctahydropyrrolo[1,2-c]pyrimidin-6-yl}methanesulfonamide] | 104 |
| Cc1cc2onc(-n3cc4n(c3=O)C[C@@H](NS(=O)(=O)N(C)C)C4(F)F)c2c(-c2c(F)cc(F)cc2F)n1 [Example 218, N′-{(6R)-7,7-difluoro-2-[6-methyl-4-(2,4,6-trifluorophenyl)[1,2]oxazolo[4,5-c]pyridin-3-yl]-3-oxo-2,5,6,7-tetrahydro-3H-pyrrolo[1,2-c]imidazol-6-yl}-N,N-dimethylsulfuric diamide] | 108 |
| Cc1cc2onc(-n3cc4n(c3=O)C[C@@H](NS(=O)(=O)C3CC3)C4(F)F)c2c(-c2c(F)cc(F)cc2F)n1 [Example 219, N-{(6R)-7,7-difluoro-2-[6-methyl-4-(2,4,6-trifluorophenyl)[1,2]oxazolo[4,5-c]pyridin-3-yl]-3-oxo-2,5,6,7-tetrahydro-3H-pyrrolo[1,2-c]imidazol-6-yl}cyclopropanesulfonamide] | 103 |
| CCS(=O)(=O)N[C@@H]1CN2C(=O)N(c3noc4cc(C)nc(-c5c(F)cc(F)cc5F)c34)CC[C@@H]2C1(F)F [Example 220, N-{(4aR,6R)-5,5-difluoro-2-[6-methyl-4-(2,4,6-trifluorophenyl)[1,2]oxazolo[4,5-c]pyridin-3-yl]-1-oxooctahydropyrrolo[1,2-c]pyrimidin-6-yl}ethanesulfonamide] | 112 |
